Laboratory results taken from patent publication US20240190849A1, “AMINOPYRIMIDINE COMPOUNDS AND METHODS OF THEIR USE” (TYRA BIOSCIENCES, INC., priority 2021, published 2024).

Tests used:
FGFR3 = target: T1, FGFR3 (Homo sapiens, UniProt P22607); test: Kinase binding assay (kinase-tagged T7 phage, affinity beads, qPCR readout), FGFR3; details: FGFR binding data
T1 construct: made in house; host or cells: E. coli derived from BL21, infected with T7 phage
Method in brief: (§1)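 Kd values derive from Hill-equation fits (slope −1, Levenberg-Marquardt) of qPCR-quantified kinase recovered from ligand-coated beads. Compounds ran as 11-point 3-fold series, final DMSO 0.9%, with 1 hour room-temperature binding.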

FGFR2 = target: T2, FGFR2 (Homo sapiens, UniProt P21802); test: Kinase binding assay (kinase-tagged T7 phage, affinity beads, qPCR readout), FGFR2; details: FGFR binding data
T2 construct: made in house; host or cells: E. coli derived from BL21, infected with T7 phage
T2 sequence (P21802 22-821): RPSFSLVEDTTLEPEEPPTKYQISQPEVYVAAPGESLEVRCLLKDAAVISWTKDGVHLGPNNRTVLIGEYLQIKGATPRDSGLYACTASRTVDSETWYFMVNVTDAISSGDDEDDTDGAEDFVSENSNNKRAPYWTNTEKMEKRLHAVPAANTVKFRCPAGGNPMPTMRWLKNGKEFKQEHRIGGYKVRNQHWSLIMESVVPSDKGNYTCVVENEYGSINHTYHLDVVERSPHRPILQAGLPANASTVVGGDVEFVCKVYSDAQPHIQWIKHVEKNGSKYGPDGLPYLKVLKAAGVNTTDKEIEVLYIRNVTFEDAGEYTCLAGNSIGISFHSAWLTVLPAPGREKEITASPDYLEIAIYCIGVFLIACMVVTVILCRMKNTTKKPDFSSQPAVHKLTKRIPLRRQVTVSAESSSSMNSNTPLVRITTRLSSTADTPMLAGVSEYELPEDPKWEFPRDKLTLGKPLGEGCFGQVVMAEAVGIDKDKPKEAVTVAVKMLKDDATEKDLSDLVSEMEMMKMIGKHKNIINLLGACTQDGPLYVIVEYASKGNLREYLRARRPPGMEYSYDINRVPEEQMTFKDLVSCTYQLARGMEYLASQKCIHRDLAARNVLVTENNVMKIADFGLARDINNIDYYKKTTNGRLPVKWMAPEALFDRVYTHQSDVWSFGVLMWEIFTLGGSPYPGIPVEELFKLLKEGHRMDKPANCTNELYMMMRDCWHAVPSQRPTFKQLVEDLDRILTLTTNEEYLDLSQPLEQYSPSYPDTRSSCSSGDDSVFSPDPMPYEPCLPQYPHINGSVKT
Method in brief: as §1

[1] = tested on: SNU-16 (Gastric Carcinoma), FGFR2 amplification; test: Cancer cell viability assay (Cell Titer-Glo), SNU-16; type: cell-based; details: Homo sapiens, SNU-16 cells, 72 hours, read-out: SNU16 FGFR2 (IC50 nM)
Method in brief: (§2)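 Cells seeded at 10,000/well in RPMI1640 with 10% FBS, then exposed 72 h at 37° C. to a 9-point 10-fold dilution series from 30 μM, in triplicate. Viability read as ATP luminescence (CellTiter-Glo 2.0) as percent of DMSO control; IC50 from 4-parameter sigmoidal fit.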

FGFR1 = target: T3, FGFR1 (Homo sapiens, UniProt P11362); test: Kinase binding assay (kinase-tagged T7 phage, affinity beads, qPCR readout), FGFR1; details: FGFR binding data
T3 construct: made in house; host or cells: E. coli derived from BL21, infected with T7 phage
T3 sequence (P11362 22-822): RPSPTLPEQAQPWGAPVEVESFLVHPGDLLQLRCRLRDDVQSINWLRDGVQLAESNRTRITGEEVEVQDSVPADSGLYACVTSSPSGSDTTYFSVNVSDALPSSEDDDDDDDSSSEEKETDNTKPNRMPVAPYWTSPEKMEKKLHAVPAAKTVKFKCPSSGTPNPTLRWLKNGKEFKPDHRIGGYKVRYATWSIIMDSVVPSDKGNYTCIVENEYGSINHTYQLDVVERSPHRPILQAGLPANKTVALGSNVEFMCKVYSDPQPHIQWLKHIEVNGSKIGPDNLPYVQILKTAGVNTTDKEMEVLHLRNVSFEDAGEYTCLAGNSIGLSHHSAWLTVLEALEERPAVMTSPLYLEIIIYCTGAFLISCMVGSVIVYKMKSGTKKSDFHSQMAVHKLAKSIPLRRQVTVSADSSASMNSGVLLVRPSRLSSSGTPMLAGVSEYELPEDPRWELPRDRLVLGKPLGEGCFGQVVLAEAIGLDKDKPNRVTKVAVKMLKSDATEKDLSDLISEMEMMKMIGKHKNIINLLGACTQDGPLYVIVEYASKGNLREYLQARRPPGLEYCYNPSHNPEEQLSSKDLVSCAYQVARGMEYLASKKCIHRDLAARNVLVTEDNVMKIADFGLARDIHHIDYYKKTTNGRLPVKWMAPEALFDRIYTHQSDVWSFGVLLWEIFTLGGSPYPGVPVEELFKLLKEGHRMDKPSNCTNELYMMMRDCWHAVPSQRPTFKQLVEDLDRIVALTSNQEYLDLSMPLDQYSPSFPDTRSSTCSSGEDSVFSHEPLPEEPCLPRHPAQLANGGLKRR
Method in brief: as §1

[2] = tested on: RT112/84 (Bladder Cancer), FGFR3-TACC3 fusion; test: Cancer cell viability assay (Cell Titer-Glo), RT112/84; type: cell-based; details: Homo sapiens, RT112/84 cells, 72 hours
Method in brief: as §2

[3] = tested on: KG-1 (Acute Myeloid Leukemia), FGFR1OP2-FGFR1 fusion; test: Cancer cell viability assay (Cell Titer-Glo), KG-1; type: cell-based; details: Homo sapiens, KG-1 cells, 72 hours
Source text: RT112/84, UM-UC-14, SNU-16 and KG-1 Cancer Cell Line Cell Viability Assays
To detect the change of intracellular ATP by Cell Titer-Glo@ and to evaluate the inhibitory effect of the compounds on cancer cell lines by determining the in vitro IC50 value of the compounds.
Cell Titer-Glo@ 2.0 Luminescent cell viability assay reagent was purchased from Promega (Madison, WI). RT112/84, SNU-16, and KG-1 cell lines were purchased from American Type Culture Collection (Manassas, VA). UM-UC-14 cell line was purchased from Sigma (St. Louis, MO). RT112/84, UM-UC-14, SNU-16, and KG-1 cells were cultured in RPMI1640 media supplemented with 10% fetal bovine serum. Cultures were maintained at 37° C. in a humidified atmosphere of 5% CO2 and 95% air.
Cell Viability Assay Procedure: Cells were plated in 96-well clear bottom/white plates (Corning #3903) at 10,000 cells/well in 100 μl of media, incubated overnight. The next day, test compound DMSO stock solutions were made at 10 mM and 2 μM final concentration. Compounds were then added to cells in a 9-dose, […] dilution series starting at 30 μM with an HP 300e Digital Dispenser (each dose was applied in triplicate). DMSO was backfilled to each well up to 301 nL total volume of test compound+DMSO, and a total of 301 nL DMSO was added to a control/no test compound well in triplicate. The cells in cell culture plates were incubated with the compounds at 37° C. and 5% CO2 for 72 hours. Then 50 μl of Cell Titer Glo 2.0 reagent was added to each well of the cell culture plates. The contents were covered from light and mixed on an orbital shaker at room temperature for 10 min. Luminescence was recorded by a Synergy H1 Microplate Reader (Biotek, Winooski, VT). Cells were assessed as a percentage of DMSO only treated control cells. Curves were plotted and IC50 values were calculated using the GraphPad Prism 8 program based on a sigmoidal dose-response equation (4 parameter).

FGFR3 (V555M) = target: T4, FGFR3 (V555M) (Homo sapiens, UniProt P22607, V555M); test: Kinase binding assay (kinase-tagged T7 phage, affinity beads, qPCR readout), FGFR3 (V555M); details: FGFR binding data
T4 construct: made in house; host or cells: E. coli derived from BL21, infected with T7 phage
T4 sequence (P22607 23-806 V555M): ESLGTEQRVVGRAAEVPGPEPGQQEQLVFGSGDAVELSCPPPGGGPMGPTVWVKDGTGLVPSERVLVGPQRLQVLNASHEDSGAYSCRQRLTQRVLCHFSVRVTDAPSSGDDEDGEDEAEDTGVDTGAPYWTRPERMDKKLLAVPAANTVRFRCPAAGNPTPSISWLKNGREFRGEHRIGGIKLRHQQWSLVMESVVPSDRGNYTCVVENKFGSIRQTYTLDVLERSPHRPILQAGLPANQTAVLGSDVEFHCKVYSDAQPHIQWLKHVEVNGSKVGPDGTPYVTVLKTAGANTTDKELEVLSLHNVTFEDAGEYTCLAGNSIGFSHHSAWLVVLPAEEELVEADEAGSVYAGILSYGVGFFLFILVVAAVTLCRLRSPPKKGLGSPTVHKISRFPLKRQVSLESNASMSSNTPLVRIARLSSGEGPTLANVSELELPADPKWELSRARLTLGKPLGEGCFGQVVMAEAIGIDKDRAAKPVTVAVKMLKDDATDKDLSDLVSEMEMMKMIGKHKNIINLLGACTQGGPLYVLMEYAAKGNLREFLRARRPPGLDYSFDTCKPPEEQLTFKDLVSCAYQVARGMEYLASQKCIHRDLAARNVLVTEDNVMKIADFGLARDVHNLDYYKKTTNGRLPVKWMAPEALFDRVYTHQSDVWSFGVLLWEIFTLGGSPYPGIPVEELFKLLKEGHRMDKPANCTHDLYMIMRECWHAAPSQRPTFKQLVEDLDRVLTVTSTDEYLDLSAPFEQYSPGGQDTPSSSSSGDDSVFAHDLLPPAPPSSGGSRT
Method in brief: as §1

[4] = tested on: UM-UC-14 (Bladder Cancer), FGFR3(S249C); test: Cancer cell viability assay (Cell Titer-Glo), UM-UC-14; type: cell-based; details: UMUC14, UM-UC-14 cells, 72 hours
Method in brief: as §2

T1 sequence (P22607 23-806): as the sequence (P22607 23-806 V555M) above, with M533V counted along it

Structure (SMILES) | Kd (FGFR3) | Kd (FGFR2) | IC50 [1] | Kd (FGFR1) | IC50 [2] | IC50 [3] | Kd (FGFR3 (V555M)) | IC50 [4]
C=CC(=O)Nc1ccc2c(c1)c(C)cn2-c1nc(Nc2cnn(C)c2)ncc1F [Example 61, N-[1-[5-fluoro-2-[(1-methylpyrazol-4-yl)amino]pyrimidin-4-yl]-3-methyl-indol-5-yl]prop-2-enamide] | 0.1 to 100 nM | 0.1 to 100 nM | 0.1 to 100 nM | 0.1 to 100 nM | 0.1 to 100 nM | 0.1 to 100 nM | 0.1 to 100 nM | 0.1 to 100 nM
C=CC(=O)Nc1ccc2c(c1)c(C)cn2-c1nc(Nc2ccnn2C)ncc1C [Example 49, N-[3-methyl-1-[5-methyl-2-[(2-methylpyrazol-3-yl)amino]-pyrimidin-4-yl]indol-5-yl]prop-2-enamide] | 0.1 to 100 nM | 0.1 to 100 nM | 0.1 to 100 nM | 100 to 250 nM | 0.1 to 100 nM | 0.1 to 100 nM | 0.1 to 100 nM | 0.1 to 100 nM
